In PMC7508628, “Targeting the Respiratory Syncytial Virus N^0-P Complex with Constrained α-Helical Peptides in Cells and Mice” (Antimicrobial Agents and Chemotherapy, 2020):
Where a SMILES comes first, the peptide text is derived from it. Bridges are numbered along the chain shown (N, C = ends). [ ]: non-standard residue; d: D form. R8 = C=CCCCCCC[C@@](C)(N)C(=O)O; R5 = C=CCCC[C@@](C)(N)C(=O)O; S5 = C=CCCC[C@](C)(N)C(=O)O

Test: Circular dichroism spectroscopy, α-helical content
Assay type: physicochemical
Conditions: CD, 10 mM phosphate buffer pH 7.5, 50 μM peptide, 25°C, calculated from ellipticity at 222 nm; average of three measurements
Description: The α-helical stabilization appeared to be higher for the i, i + 7 staples overall.
The circular dichroism spectra were acquired on a Chirascan spectropolarimeter. The samples were prepared in 10 mM phosphate buffer, pH 7.5, at a peptide concentration of 50 μM. Data were recorded at 25°C by step scan from 180 nm to 260 nm in a 0.5-mm-pathlength quartz cell using 0.2-nm-wavelength increments, a 1-nm bandwidth, and a response time of 1 s. Each spectrum was an average of three measurements and was subtracted from the buffer baseline. The data were converted to per residue molar ellipticity units (θ; in degrees · square centimeters · decimoles^−1 · number of residues^−1) and smoothed using Igor Pro software. Percent helicity was calculated as follows: (100 × CD222)/(C × N × {40,000 × [1 − (2.5/N)]}), where CD222 is the molar ellipticity (θ) at 222 nm (in millidegrees), N is the number of amino acids in the peptide, and C is the peptide molar concentration (in moles per liter).

Going from CC[C@H](C)[C@H](NC(=O)[C@H](CO)NC(=O)[C@H](CCC(=O)O)NC(=O)[C@H](CC(C)C)NC(=O)[C@H](Cc1ccccc1)NC(=O)[C@]1(C)CCCC=CCCC[C@@](C)(NC(=O)[C@H](CC(N)=O)NC(=O)[C@H](CC(N)=O)NC(=O)[C@H](C)NC(=O)[C@H](CC(=O)O)NC(=O)[C@H](CCC(=O)O)NC(C)=O)C(=O)N[C@@H](C)C(=O)N[C@@H]([C@@H](C)O)C(=O)N1)C(=O)N[C@@H](CCCCN)C(=O)NCC(=O)N[C@@H](CCCCN)C(=O)N[C@@H](Cc1ccccc1)C(=O)N[C@@H](C)C(=O)N[C@@H](CO)C(N)=O [1b] (Ac-EDANN[R5]AT[S5]FLESIKGKFAS-NH2; staple 6-9) to CC[C@H](C)[C@H](NC(=O)[C@H](CO)NC(=O)[C@H](CCC(=O)O)NC(=O)[C@H](CC(C)C)NC(=O)[C@H](Cc1ccccc1)NC(=O)[C@H](CCCCN)NC(=O)[C@@H](NC(=O)[C@H](C)NC(=O)[C@]1(C)CCCC=CCCC[C@](C)(NC(=O)[C@H](CCC(=O)O)NC(=O)CNC(=O)[C@H](Cc2c[nH]cn2)NC(=O)[C@H](Cc2ccccc2)NC(=O)[C@H](CCC(=O)O)NC(C)=O)C(=O)N[C@@H](C)C(=O)N[C@@H](CC(N)=O)C(=O)N[C@@H](CC(N)=O)C(=O)N1)[C@@H](C)O)C(=O)N[C@@H](CCCCN)C(=O)NCC(=O)N[C@@H](CCCCN)C(=O)N[C@@H](Cc1ccccc1)C(=O)N[C@@H](C)C(=O)N[C@@H](CO)C(N)=O [4d] (Ac-EFHGE[S5]ANN[S5]ATKFLESIKGKFAS-NH2; staple 6-10), the “% helicity” value rises from 11.5% to 28.0%.

Going from CC[C@H](C)[C@@H]1NC(=O)[C@H](CO)NC(=O)[C@@](C)(NC(=O)[C@H](CC(C)C)NC(=O)[C@H](Cc2ccccc2)NC(=O)[C@H](CCCCN)NC(=O)[C@@H](NC(=O)[C@H](C)NC(=O)[C@H](CCCCN)NC(=O)[C@H](CC(N)=O)NC(=O)[C@H](CC(N)=O)NC(=O)[C@H](C)NC(=O)[C@H](CC(=O)O)NC(=O)[C@H](CCC(=O)O)NC(=O)CNC(=O)[C@H](Cc2c[nH]cn2)NC(=O)[C@H](Cc2ccccc2)NC(=O)[C@H](CCC(=O)O)NC(C)=O)[C@@H](C)O)CCCC=CCCCC2(CCCC=CCCC[C@@](C)(C(=O)N[C@@H](CO)C(N)=O)NC(=O)[C@H](Cc3ccccc3)NC(=O)[C@H](CCCCN)NC2=O)NC(=O)[C@H](CCCCN)NC1=O (stereo partly drawn) [2e1f] to CC[C@H](C)[C@H](NC(=O)[C@]1(C)CCCC=CCCCCCC[C@@](C)(NC(=O)[C@H](CC(N)=O)NC(=O)[C@H](CC(N)=O)NC(=O)[C@H](C)NC(=O)[C@H](CC(=O)O)NC(=O)[C@H](CCC(=O)O)NC(=O)CNC(=O)[C@H](Cc2c[nH]cn2)NC(=O)[C@H](Cc2ccccc2)NC(=O)[C@H](CCC(=O)O)NC(C)=O)C(=O)N[C@@H](C)C(=O)N[C@@H]([C@@H](C)O)C(=O)N[C@@H](CCCCN)C(=O)N[C@@H](Cc2ccccc2)C(=O)N[C@@H](CC(C)C)C(=O)N[C@@H](CCC(=O)O)C(=O)N1)C(=O)N[C@@H](CCCCN)C(=O)NCC(=O)N[C@@H](CCCCN)C(=O)N[C@@H](Cc1ccccc1)C(=O)N[C@@H](C)C(=O)N[C@@H](CO)C(N)=O [4g], the “% helicity” value rises from 27.0% to 47.6%.

Compared with CC[C@H](C)[C@H](NC(=O)[C@H](CO)NC(=O)[C@H](CCC(=O)O)NC(=O)[C@H](CC(C)C)NC(=O)[C@H](Cc1ccccc1)NC(=O)[C@H](CCCCN)NC(=O)[C@@H](NC(=O)[C@H](C)NC(=O)[C@H](CCCCN)NC(=O)[C@]1(C)CCCC=CCCC[C@@](C)(NC(=O)[C@H](CCC(=O)O)NC(=O)CNC(=O)[C@H](Cc2c[nH]cn2)NC(=O)[C@H](Cc2ccccc2)NC(=O)[C@H](CCC(=O)O)NC(C)=O)C(=O)N[C@@H](C)C(=O)N[C@@H](CC(N)=O)C(=O)N1)[C@@H](C)O)C(=O)N[C@@H](CCCCN)C(=O)NCC(=O)N[C@@H](CCCCN)C(=O)N[C@@H](Cc1ccccc1)C(=O)N[C@@H](C)C(=O)N[C@@H](CO)C(N)=O [4b] (Ac-EFHGE[R5]AN[S5]KATKFLESIKGKFAS-NH2; staple 6-9), CC[C@H](C)[C@H](NC(=O)[C@H](CO)NC(=O)[C@H](CCC(=O)O)NC(=O)[C@H](CC(C)C)NC(=O)[C@H](Cc1ccccc1)NC(=O)[C@]1(C)CCCC=CCCCCCC[C@@](C)(NC(=O)[C@H](CCC(=O)O)NC(=O)CNC(=O)[C@H](Cc2c[nH]cn2)NC(=O)[C@H](Cc2ccccc2)NC(=O)[C@H](CCC(=O)O)NC(C)=O)C(=O)N[C@@H](C)C(=O)N[C@@H](CC(N)=O)C(=O)N[C@@H](CC(N)=O)C(=O)N[C@@H](CCCCN)C(=O)N[C@@H](C)C(=O)N[C@@H]([C@@H](C)O)C(=O)N1)C(=O)N[C@@H](CCCCN)C(=O)NCC(=O)N[C@@H](CCCCN)C(=O)N[C@@H](Cc1ccccc1)C(=O)N[C@@H](C)C(=O)N[C@@H](CO)C(N)=O [4f] (Ac-EFHGE[R8]ANNKAT[S5]FLESIKGKFAS-NH2; staple 6-13) is lower in “% helicity” value: 21.7% for the first, 17.2% for the second.

Going from CC[C@H](C)[C@H](NC(=O)[C@]1(C)CCCCCCC=CCCCC2(CCCC=CCCCCCC[C@@](C)(NC(=O)[C@H](Cc3ccccc3)NC(=O)[C@H](CCC(=O)O)NC(C)=O)C(=O)NCC(=O)N[C@@H](CCC(=O)O)C(=O)N[C@@H](CC(=O)O)C(=O)N[C@@H](C)C(=O)N[C@@H](CC(N)=O)C(=O)N[C@@H](CC(N)=O)C(=O)N2)C(=O)N[C@@H](C)C(=O)N[C@@H]([C@@H](C)O)C(=O)N[C@@H](CCCCN)C(=O)N[C@@H](Cc2ccccc2)C(=O)N[C@@H](CC(C)C)C(=O)N[C@@H](CCC(=O)O)C(=O)N1)C(=O)N[C@@H](CCCCN)C(=O)NCC(=O)N[C@@H](CCCCN)C(=O)N[C@@H](Cc1ccccc1)C(=O)N[C@@H](C)C(=O)N[C@@H](CO)C(N)=O (stereo partly drawn) [4e3b] to CC[C@H](C)[C@H](NC(=O)[C@H](CO)NC(=O)[C@H](CCC(=O)O)NC(=O)[C@H](CC(C)C)NC(=O)[C@H](Cc1ccccc1)NC(=O)[C@H](CCCCN)NC(=O)[C@@H](NC(=O)[C@H](C)NC(=O)[C@]1(C)CCCC=CCCCCCC[C@@](C)(NC(=O)[C@H](Cc2ccccc2)NC(=O)[C@H](CCC(=O)O)NC(C)=O)C(=O)NCC(=O)N[C@@H](CCC(=O)O)C(=O)N[C@@H](CC(=O)O)C(=O)N[C@@H](C)C(=O)N[C@@H](CC(N)=O)C(=O)N[C@@H](CC(N)=O)C(=O)N1)[C@@H](C)O)C(=O)N[C@@H](CCCCN)C(=O)NCC(=O)N[C@@H](CCCCN)C(=O)N[C@@H](Cc1ccccc1)C(=O)N[C@@H](C)C(=O)N[C@@H](CO)C(N)=O [4e] (Ac-EF[R8]GEDANN[S5]ATKFLESIKGKFAS-NH2; staple 3-10), the “% helicity” value falls from 51.1% to 28.8%.

Test: circular dichroism
Conditions: 10 mM phosphate; pH 7.5; 25 °C; 50 uM

Compared with CC[C@H](C)[C@H](NC(=O)[C@H](CO)NC(=O)[C@H](CCC(=O)O)NC(=O)[C@H](CC(C)C)NC(=O)[C@H](Cc1ccccc1)NC(=O)[C@H](CCCCN)NC(=O)[C@@H](NC(=O)[C@H](C)NC(=O)[C@H](CCCCN)NC(=O)[C@H](CC(N)=O)NC(=O)[C@H](CC(N)=O)NC(=O)[C@H](C)NC(=O)[C@H](CC(=O)O)NC(=O)[C@H](CCC(=O)O)NC(C)=O)[C@@H](C)O)C(=O)N[C@@H](CCCCN)C(=O)N[C@@]1(C)CCCC=CCCC[C@@](C)(C(N)=O)NC(=O)[C@H](C)NC(=O)[C@H](Cc2ccccc2)NC(=O)[C@H](CCCCN)NC1=O (Ac-EDANNKATKFLESIK[S5]KFA[S5]-NH2; staple 16-20), CC[C@H](C)[C@@H]1NC(=O)[C@](C)(NC(=O)[C@H](CCC(=O)O)NC(=O)[C@H](CC(C)C)NC(=O)[C@H](Cc2ccccc2)NC(=O)[C@H](CCCCN)NC(=O)[C@@H](NC(=O)[C@H](C)NC(=O)[C@H](CCCCN)NC(=O)[C@H](CC(N)=O)NC(=O)[C@H](CC(N)=O)NC(=O)[C@H](C)NC(=O)[C@H](CC(=O)O)NC(=O)[C@H](CCC(=O)O)NC(C)=O)[C@@H](C)O)CCCC=CCCC[C@@](C)(C(=O)N[C@@H](CCCCN)C(=O)N[C@@H](Cc2ccccc2)C(=O)N[C@@H](C)C(=O)N[C@@H](CO)C(N)=O)NC(=O)[C@H](CCCCN)NC1=O (Ac-EDANNKATKFLE[R5]IK[S5]KFAS-NH2; staple 13-16) is higher in helicity: 24.1% for the first, 30.7% for the second.

First: CC[C@H](C)[C@@H]1NC(=O)[C@@](C)(NC(=O)[C@H](CCC(=O)O)NC(=O)[C@H](CC(C)C)NC(=O)[C@H](Cc2ccccc2)NC(=O)[C@H](CCCCN)NC(=O)[C@@H](NC(=O)[C@H](C)NC(=O)[C@H](CCCCN)NC(=O)[C@H](CC(N)=O)NC(=O)[C@H](CC(N)=O)NC(=O)[C@H](C)NC(=O)[C@H](CC(=O)O)NC(=O)[C@H](CCC(=O)O)NC(C)=O)[C@@H](C)O)CCCC=CCCC[C@@](C)(C(=O)N[C@@H](Cc2ccccc2)C(=O)N[C@@H](C)C(=O)N[C@@H](CO)C(N)=O)NC(=O)CNC(=O)[C@H](CCCCN)NC1=O (Ac-EDANNKATKFLE[S5]IKG[S5]FAS-NH2; staple 13-17)
Second: CC[C@H](C)[C@@H]1NC(=O)[C@H](CO)NC(=O)[C@](C)(NC(=O)[C@H](CC(C)C)NC(=O)[C@H](Cc2ccccc2)NC(=O)[C@H](CCCCN)NC(=O)[C@@H](NC(=O)[C@H](C)NC(=O)[C@H](CCCCN)NC(=O)[C@H](CC(N)=O)NC(=O)[C@H](CC(N)=O)NC(=O)[C@H](C)NC(=O)[C@H](CC(=O)O)NC(=O)[C@H](CCC(=O)O)NC(C)=O)[C@@H](C)O)CCCCCCC=CCCC[C@@](C)(C(=O)N[C@@H](CO)C(N)=O)NC(=O)[C@H](Cc2ccccc2)NC(=O)[C@H](CCCCN)NC(=O)CNC(=O)[C@H](CCCCN)NC1=O (Ac-EDANNKATKFL[R8]SIKGKF[S5]S-NH2; staple 12-19)
The helicity of the first is higher: 46.5% for the first, 35.3% for the second.
